Data set [1] has as its system SOD in submandibular gland tissue of mice. The experiment in a line: Detection of SOD content in submandibular gland tissue. It is filed as in vivo, mouse. As to conditions: for content of SOD compared with the control group: 36 weeks; for SOD (Mean ± SD): submandibular gland tissue of mice at 36 weeks of age. The method, then:
Detection of SOD content: The submandibular gland tissue of mice were used to prepare tissue homogenates with icy physiological saline, and the protein content was quantified by BCA method. Refer to the kit operation instructions. Take 0.2 ml of the sample and mix it with 1.3 ml of test solution. Incubate at 37° C. for 40 min. Add 2 ml of chromogenic agent. Placed at room temperature for 10 min. Determine OD at 550 nm. The results are expressed in terms of U/mg protein, which states that the corresponding SOD amount per milligram of protein in a 1 ml reaction solution with a SOD inhibition rate of 50% is an SOD activity unit.

For data set [2] the following is noted: chemical stability of o-quinone structure; cited from earlier work.
The subject of data set [3] is inflammatory factors in mouse submandibular glands tissue. The experiment in a line: Realtime quantitative PCR of inflammatory factors in mouse submandibular gland tissue. It is filed as in vivo. As to conditions: for expression of IL-1β / expression of IL-6 / expression of IL-10 / expression of TNF-α: submandibular glands tissue, 36 weeks, p<0.05. The procedure: Take the mouse submandibular gland tissue and extract RNA using Trizol. Superscript III was used for reverse transcription. Reaction was performed at 42° C. for 30 minutes. Oligo dT and Random Hexamer were used as primers for reverse transcription. Realtime quantitative PCR reaction system: 2×PCR premix 10 μl, Primers 0.8 μl, cDNA 1 μl, add balance of H2O to 20 μl; Reaction conditions: 95° C. 10 min, 95° C. 15 s, 60° C. 60 s, Read plate for 50 cycles; Melting curve Analysis: Temperature 55° C.-95° C., read once per minute. Set up 3 replicates for each sample.

The test system of data set [4] is mouse submandibular gland tissue. The experiment in a line: Mouse submandibular gland tissue slice detection (hematoxylin-eosin), lymphocytic infiltration. The following applies: NOD mice, 36 weeks age, FIG. 3. It is filed as in vivo. The source says: 36 weeks age of mouse submandibular gland tissue was isolated, embedded in paraffin and sliced, stained with hematoxylin-eosin and photographed with an inverted microscope.

In a further data set the test system is NF-κB. The experiment in a line: Western Blot detection of NF-κB activation in mouse submandibular gland tissue. It counts as in vivo. The following applies: for phosphorylation level of P65: compared with the control group. The procedure: Detection of NF-κB Activation in Submandibular Gland Tissue of Mouse Submandibular Gland by Western Blot
Take the same amount of total protein for each sample, add 4×SDS loading buffer according to the ratio of protein sample: 4×SDS at 3:1, mix well, boil at 95° C. for 5 min, and prepare 10% separation gel and 5% concentration gel. Perform SDS-PAGE electrophoresis, transfer the membrane, and block the PVDF membrane with 5% solution of skim milk in TBST for 1 hour at room temperature or overnight at 4° C. Dilute antibody with blocking solution, incubate at room temperature for 2 h or 4° C. overnight. Wash membrane, incubate with secondary antibody, and then wash the membrane again. After the equal volume of liquids A and B in the luminescence kit were mixed in a vessel, the mixture was uniformly added dropwise to the PVDF membrane, and the reaction was carried out in the dark for 3-5 minutes.
At the 36th week of treatment, the mouse submandibular glands were taken and Western Blot was used to detect the activation of NF-κB. […] P65 is the protein subunit of NF-κB, and its phosphorylation level directly reflects the activity of NF-κB. In addition, IκB binds to NF-κB to prevent its entry into the nucleus and exerts its activity. Once IκB is phosphorylated, it is degraded and releases NF-κB.
(In general: In western blotting, separated proteins are transferred to a membrane and probed.)

A further data set deals with NOD mice. The experiment in a line: Saliva flow detection (pilocarpine-stimulated) in NOD mouse model of Sjogren's syndrome. The following applies: for salivary flow compared with the control group: P<0.05; for SFR (salivary flow): NOD mice, PQQ 1 mg/kg/day, active vitamin D 0.1 μg/kg/day; for salivary secretion function of NOD mice: summary statement. It counts as in vivo. An excerpt: Model: NOD mouse model. NOD (Non-obese Diabetes) mice are a genetically deficient animal model of spontaneous diabetes. The female mice develop diabetes from 14 weeks and the incidence can reach as high as 80% by 30 weeks. NOD mice are also an animal model of Sjogren's syndrome. Mice develop inflammatory cell infiltration in the submandibular gland from 12 weeks of age, with increased expression of multiple inflammatory factors, and reduced salivary secretion and increased salivary salt concentration from 16 to 20 weeks of age.
Experimental grouping: 8-week-old female NOD mice were purchased from Shanghai SLE Experimental Animal Corporation and divided into control group, active vitamin d group, PQQ group and PQQ combined with active vitamin D group. There were four different treatment groups, 10 in each group. Saliva flow rates were measured at 12, 24, and 36 weeks of age. The amounts of PQQ and active vitamin D were 1 mg/kg body weight per day and 0.1 μg/kg body weight per day, respectively.
a. Intraperitoneal injection of 1.2% avertin (Chinese name: tribromoethanol), injection dose: 0.2 ml/10 g body weight, formula: (1) […] avertin dissolved in 0.25 ml t-amyl alcohol, shaking for 12 hours to completely dissolve; (2) Add 19.75 ml of 0.9% NaCl solution to obtain 1.2% avertin. Mice were anesthetized gently.
b. Subcutaneous pilocarpine injection in the neck, injection dose: 0.5 mg/kg=0.01 mg/20 g body weight, mother liquor concentration: 0.5 g/10 ml physiological saline=50 mg/ml=0.05×103 mg/ml, solution concentration: the mother liquor was diluted 1000 times, ie, 0.05 mg/ml, to stimulate saliva secretion.
c. Began to collect saliva after 5 minutes, that is, cotton ball with about 8 mg dry weight is made from sterile cotton ball, which is then put into a 1.5 mL EP tube to determine the dry weight. When measuring saliva secretion, the cotton ball is put into the mouse cheek and then taken into the EP tube after 10 min. The wet weight is determined on the electronic balance. Saliva secretion=wet weight of cotton balls−dry weight of cotton balls.

For data set [5] the following is noted: rat, cited from earlier work.
In data set [6] the test system is MDA in submandibular gland tissue of mice. As to the kind of experiment: Detection of MDA content in submandibular gland tissue. It is filed as in vivo, mouse. As to conditions: for content of MDA compared with the control group: 36 weeks, P<0.05; for MDA (Mean ± SD): submandibular gland tissue of mice at 36 weeks of age. The method, then: Detection of MDA content: The submandibular gland tissue in the submandibular glands of mice were harvested and homogenized with icy physiological saline. The protein content was quantified by BCA. Take 1 ml homogenate, add 1 ml 30% trichloroacetic acid and 1 ml 0.67% TBA in turn, bath in boiling water for 30 min and cool to room temperature. After centrifugation at 3000 g for 10 min, the absorbance (A) of the supernatant was measured at 535 nm, and the MDA content was calculated from the standard curve. The result was expressed in nmol/mg tissue.

Where [7] appears, read: submandibular glands, 36th week.

Entries after “also recorded” stand apart in the source; their conditions may differ. Marks after values point to notes of the source that are not given here.

Consider `O=C(O)c1cc(C(=O)O)c2c(n1)C(=O)C(=O)c1cc(C(=O)O)[nH]c1-2` [PQQ, Pyrroloquinoline quinone], for which, in data set [1], the “content of SOD compared with the control group” value was “significantly higher” and the “SOD (Mean ± SD)” value amounted to 198.21 ± 21.33 NU/mg protein. Moreover, the “redox cycles it can participate in” value in data set [2] is listed as 20,000. In data set [3], the “expression of IL-1β” value was “significantly inhibited”, the “expression of IL-6” value is recorded as “significantly reduce; also recorded: significantly inhibited”, the “expression of IL-10” value is given as “significantly inhibited” and the “expression of TNF-α” value is reported as “significantly inhibited”. For the same compound, in data set [3] (summary and FIG. 2 legend), the “expression of Il-1” value is “significantly reduce” and the “expression of gamma interferon” value was “significantly reduce”. The “area of lymphocyte infiltration in submandibular gland” value in data set [4] is reported as “significantly inhibit; also recorded: significantly reduced”. Moreover, the “activity of NF-kappaB signaling pathway” value in the data set with NF-κB (submandibular gland tissues of NOD mice, summary statement) was “significantly reduce”. In addition, in the data set on NF-κB (setting [7]), the “phosphorylation level of IκB” value is “significantly attenuated” and the “phosphorylation level of P65” value is “significantly attenuated”. In addition, the “salivary flow compared with the control group” value in the data set with NOD mice (36th week) was “significantly higher”. The “SFR (salivary flow)” value with NOD mice (12 W of age) is listed as 2.55 (n = 10) μl/g/10 min. The “SFR (salivary flow)” value in the data set on NOD mice (24 W of age) is listed as 3.21 (n = 6) μl/g/10 min. Also, in the data set with NOD mice (36 W of age), the “SFR (salivary flow)” value is on record as 3.75* (n = 5) μl/g/10 min. The “salivary flow compared with the control group” value with NOD mice (age of 24 weeks) was “no significant difference”. Also, the “salivary secretion function of NOD mice” value with NOD mice is “significantly improve”. Also, the adverse reactions result in data set [5] (100 mg/kg body weight per day for 14 consecutive days) is recorded as “no adverse reactions were found”. Also, the LD50 in data set [5] is given as 1000-2000 mg/kg body weight. Besides, in data set [6], the “content of MDA compared with the control group” value is given as “significantly lower” and the “MDA (Mean ± SD)” value is given as 4.61 ± 0.76 nmol/mg protein. In data set [6] (summary statement), the “oxidative stress levels in submandibular gland tissues of NOD mice” value is listed as “significantly inhibit”.
As to `C=C1/C(=C\C=C2/CCC[C@]3(C)[C@@H]([C@H](C)CCCC(C)(C)O)CC[C@@H]23)C[C@@H](O)C[C@@H]1O` [active vitamin D, 1,25-Dihydroxyvitamin D3, reference compound], in data set [1], the “content of SOD compared with the control group” value is on record as “no significant difference” and the “SOD (Mean ± SD)” value is on record as 102.45 ± 14.22 NU/mg protein. For the same compound, in data set [3], the “expression of IL-1β” value was “did not detect the effect”, the “expression of IL-6” value is “did not detect the effect”, the “expression of IL-10” value is “did not detect the effect” and the “expression of TNF-α” value is recorded as “did not detect the effect”. The “phosphorylation level of P65” value in the data set on NF-κB (setting [7]) is “no significant change”. Further, in the data set on NOD mice (36th week), the “salivary flow compared with the control group” value is reported as “no statistical difference”. Further, in the data set with NOD mice (12 W of age), the “SFR (salivary flow)” value is 2.74 (n = 10) μl/g/10 min. Also, the “SFR (salivary flow)” value with NOD mice (24 W of age) is 2.82 (n = 5) μl/g/10 min. Besides, in the data set on NOD mice (36 W of age), the “SFR (salivary flow)” value is 3.22 (n = 4) μl/g/10 min. In addition, the “salivary flow compared with the control group” value in the data set on NOD mice (age of 24 weeks) is “no significant difference”. In the data set with NOD mice, the “salivary secretion function of NOD mice” value is “no effect”. Also, in data set [6], the “content of MDA compared with the control group” value is recorded as “no significant difference” and the “MDA (Mean ± SD)” value was found to be 9.48 ± 2.12 nmol/mg protein.
